From US20230390260A1, “METHOD OF TREATMENT OF PAIN THROUGH BUCCAL ADMINISTRATION OF FLUNIXIN” (Intervet Inc., priority 2020, published 2023)
Where two headings read alike, the source gives them in different places.

What was measured:
[1] = bovine species, same (transdermal) formulation; cited from earlier work
[2] = Pharmacokinetic study of flunixin in young piglets, comparing administration routes (plasma LC-MS/MS); type: in vivo, piglets (swine); settings: pig, read-out: % F (bioavailability)
Method: A pharmacokinetic study was conducted to compare the bioavailability of flunixin when administered buccally, intramuscularly, IV, and the transdermal routes via the perineum, ear canal, rectum, and midline in young piglets.
Piglets were administered either Banamine® Transdermal (buccal, perineum, ear canal, rectum, and midline) or Banamine®-S Injectable Solution (intravenous and intramuscular) at 5 to 6 days of age. Blood samples were collected from the piglets at 5 min, 15 min, 1 h, 2 h, 4 h, 8 h, 12 h, 24 h, 36 h, and 48 h for those treated with Banamine® Transdermal, and at 1 h, 2 h, 4 h, 8 h, 12 h, 24 h, 36 h, 48 h, 60 h, and 72 h for those treated with Banamine®-S Injectable Solution. Plasma samples were analyzed for flunixin concentration using an GLP-validated LC/MS-MS method. Swine plasma (K2EDTA) is extracted by protein precipitation with an acetonitrile solution of the internal standard (Flunixin-d3). The samples are then centrifuged, and the resulting supernatants are analyzed by LC-MS/MS using selective reaction monitoring in negative electrospray ionization mode. The ionic transitions monitored are m/z 295 to m/z 251 for Flunixin and m/z 298 to m/z 254 for the internal standard.
The following key pharmacokinetic parameters were calculated for each group (mean±standard error): […]

SMILES: Cc1c(Nc2ncccc2C(=O)O)cccc1C(F)(F)F [flunixin, Flunixin]
- bioavailability [1]: 44%
- bioavailability ([2]; im, Intramuscular, Banamine-S Injectable Solution, piglets): 71%
- bioavailability ([2]; other: buccal, Buccal, Banamine Transdermal, piglets): 40%
- bioavailability ([2]; topical or ocular, Midline, Banamine Transdermal, piglets (swine)): 5%
